Data set [1] concerns promastigote forms of L. (L.) amazonensis. Briefly: In vitro leishmanicidal activity, growth inhibition of promastigote forms (counting in Neubauer's chamber). It is filed as cell-based, Leishmania (Leishmania) amazonensis. To be noted: value (95% CI). The protocol: (§1) L. (L.) amazonensis (IFLA/BR/67/PH8.) was maintained as promastigote forms in Roswell Park Memorial Institute medium (RPMI 1640 medium) (Gibco, Grand Island, NY, USA), supplemented with antibiotics (penicillin 10.000 UI/mL and streptomycin […]) (Cultilab, Campinas, BR), and 10% bovine fetal serum (FBS) (Cultilab), at 25°C. L. (L.) infantum (MHOM/BR/1972/LD) was maintained as promastigote forms in M199 medium (Gibco), supplemented with 10% FBS (Cultilab), antibiotics (Cultilab), 5% human urine and 0.25% hemin (Sigma-Aldrich) at 25°C, and amastigote forms were obtained from the spleen of golden hamsters after 60 to 70 days of infection ([21]). Peritoneal murine macrophages were obtained by washing the peritoneal cavity of BALB/c mice with RPMI 1640 medium (Gibco) after 72 h of the application of 5 mL of the sodium thioglycolate (Sigma-Aldrich) at 3%, and then were cultivated in RPMI 1640 medium (Gibco) supplemented with antibiotics and 10% FBS (Gibco), at 37°C in a 5% CO2 humidified incubator.
Initially, a screening was performed against promastigote forms of L. (L.) amanzonensis. […] […], and the leishmanicidal activity was determined by the inhibition of growth of the promastigote forms by counting the total number of live promastigote in Neubauer's chamber (Global Glass, São Paulo, BR) using an optical microscope (Nikon New York, USA). […] To evaluate the leishmanicidal activity against amastigote forms, peritoneal murine macrophages were seemed (2 × 10^5 cells per well) in 24-well plates on slide chambers and incubated at 37°C for 24 h. […] The slides were stained with Giemsa (Synth, Diadema, BR), analyzed using an optical microscopy (Nikon), and the parasite load was defined by the number of infected macrophages X number of intracellular amastigotes/number of total macrophages ([23]). Parasites cultured in medium with 0.1% were used as negative control and parasites cultured in medium with MA or AmpB were used as positive controls.

In data set [2] the test system is Peritoneal murine macrophages. Briefly: In vitro cytotoxic activity, MTT assay. It is filed as cell-based, BALB/c mice. As to the method:
as §1
(§2) The cells were incubated at 37°C in a 5% CO2 humidified incubator at 37°C during 48 h, and the cytotoxic activity was determined using MTT assay ([23]). Cells cultured in medium with 0.1% DMSO were used as negative control and cells cultured in medium with 25% DMSO were used as positive control.
In general terms: Tetrazolium dyes change colour on reduction, which living cells bring about.

Data set [3] is described as follows: In vitro cytotoxic activity, MTT assay. It counts as cell-based, BALB/c mice. To be noted: BALB/c, mouse, 48 h, MTT, value (95% CI). The protocol: as §1, §2
The subject of a further data set is HFF cell. To be noted: ref [32]; cited from earlier work.
In data set [4] the test system is Defibrinated sheep blood erythrocytes. Briefly: In vitro hemolytic activity. To be noted: 400 μM; 30 min at 37°C. It counts as cell-based. The protocol: (§3) Defibrinated sheep blood (Newprov, Pinhais, PR, BR) was diluted in 0.9% saline solution and a suspension at 3% of erythrocytes was transferred (100 μL) in 96-well plates. […] The hemolytic activity was determined in the cell supernatant by optical density reading at 415 nm (Libra S12–Biochrom–Cambridge, RU) Distilled water was used as a positive control, and 0.9% saline solution with 0.1% DMSO was used as negative control.

Data set [5] has as its system promastigote forms of L. (L.) infantum. Kind of data set: In vitro leishmanicidal activity, growth inhibition of promastigote forms (counting in Neubauer's chamber). It is filed as cell-based, Leishmania (Leishmania) infantum. As to the method: as §1
Initially, a screening was performed against promastigote forms of L. (L.) amanzonensis. […] The plates were incubated at same conditions previously described during 48 h, and the leishmanicidal activity was determined by the inhibition of growth of the promastigote forms by counting the total number of live promastigote in Neubauer's chamber (Global Glass, São Paulo, BR) using an optical microscope (Nikon New York, USA). […] To evaluate the leishmanicidal activity against amastigote forms, peritoneal murine macrophages were seemed (2 × 10^5 cells per well) in 24-well plates on slide chambers and incubated at 37°C for 24 h. […] The slides were stained with Giemsa (Synth, Diadema, BR), analyzed using an optical microscopy (Nikon), and the parasite load was defined by the number of infected macrophages X number of intracellular amastigotes/number of total macrophages ([23]). Parasites cultured in medium with 0.1% were used as negative control and parasites cultured in medium with MA or AmpB were used as positive controls.

The subject of a further data set is L. (L.) infantum. Briefly: In vivo leishmanicidal activity in L. (L.) infantum-infected hamsters (limiting dilution). To be noted: for reduction of parasite burden in liver / reduction of parasite burden in spleen: intraperitoneal, eight consecutive days, vs negative control group; for survival rate / average body weight: infected hamsters; for survival rate: after the treatment (data not shown); for average body weight: among negative, LicoA and MA groups. On the set-up: species or system golden hamsters (Mesocricetus auratus). As to the method:
Male golden hamsters were infected by intraperitoneal route with 1.0 × 10^8 L. (L.) infantum amastigotes. Four weeks after infection, the animals were randomly separated in 4 groups of 6 animals each. […] Negative control group received the same number of injections of phosphate buffered saline (PBS) and animals from positive control group was treated with MA (Sanofi-Aventis) at dose 50 mg/kg of body weight during eight consecutive days by intraperitoneal route. Thirty five days after treatment the animals were sacrificed and the parasite burden was evaluated both in spleen and liver by limiting dilution method ([24]).

For another data set, the system named is L. (L.) major. To be noted: 2.5 and 5 mg/kg of body weight, intraperitoneal, 7 days after infection during 39 days; ref [11]; cited from earlier work.
The subject of the next data set is amastigotes. To be noted: 2.5 μM, 72 h of incubation; ref [10], [11]; cited from earlier work.
A further data set deals with erythrocytes. To be noted: after 24 h; ref [33]; cited from earlier work.
Data set [6] relates to amastigote forms of L. (L.) amazonensis. Kind of data set: In vitro leishmanicidal activity against intracellular amastigote forms in peritoneal murine macrophages (Giemsa, parasite load). It counts as cell-based. To be noted: Leishmania amazonensis, Macrophage, 48 h, value (95% CI). As to the method:
as §1
(§4) Initially, a screening was performed against promastigote forms of L. (L.) amanzonensis. […] The slides were stained with Giemsa (Synth, Diadema, BR), analyzed using an optical microscopy (Nikon), and the parasite load was defined by the number of infected macrophages X number of intracellular amastigotes/number of total macrophages ([23]). […]

Data set [7] has as its system amastigote forms of L. (L.) infantum. The data set is described as above. It is filed as cell-based, Leishmania (Leishmania) infantum. To be noted: 48 h, read-out: IC50 L (L.) infantum Amastigote 48 h. As to the method:
as §1, §4

Data set [8] can be described thus: Hepatotoxicity in no-infected hamsters, serum ALT and AST. To be noted: for serum levels of aminotransaminases (ALT, AST): no-infected hamsters, 15 days, vs negative control group. It counts as in vivo, golden hamsters (Mesocricetus auratus). As to the method: After this period, serum concentrations of alanine aminotransferase (ALT) and aspartate aminotransferase (AST) were determined using sets of commercial reagents (Labtest, Minas Gerais, Brazil). Negative control group received the same number of injections of PBS.

On the set-up of data set [9]: method as in PMID 29698432. To be noted: ref [38]; cited from earlier work.
A further data set deals with L. (L.) donovani. To be noted: 20 mg/kg of body weight per day, intraperitoneal, six consecutive days; vs untreated control; ref [11]; cited from earlier work.
For data set [10] the following is noted: ref [11], cited from earlier work.
The nature of data set [11]: In vitro hemolytic activity. It is filed as cell-based, sheep. To be noted: sheep. The protocol:
as §3

[12] abbreviates: Leishmania amazonensis, 24 h, read-out: IC50 L (L.) amazonensis Promastigote 24 h.
[13] abbreviates: Leishmania amazonensis, 48 h, read-out: IC50 L (L.) amazonensis Promastigote 48 h.
Where [14] appears, read: 48 h, MTT, value (95% CI), read-out: CC50 Peritoneal murine macrophages 48 h.
[15] abbreviates: 20 mg/kg of body weight per day.
Where [16] appears, read: 50 mg/kg of body weight per day.
Where [17] appears, read: 50 mg/kg of body weight per day intraperitoneally.

Like-named read-outs stand apart in the source and are kept apart here. Some results are limits rather than exact numbers.

Usually IC50 stands for the concentration that inhibits the measured activity by half. What is called CC50 is the concentration giving 50% cytotoxicity. Turning to “(E)-3-(4-hydroxy-3-methoxyphenyl)-1-(4-hydroxyphenyl)prop-2-en-1-one [LLA2 (2a)]”, the IC50 in data set [1] (24 h, read-out: IC50 L (L.) amazonensis Promastigote 24 h) stood at 301 µM; in [1] (48 h, read-out: IC50 L (L.) amazonensis Promastigote 48 h), 287 µM. Moreover, the CC50 in data set [2] was greater than 400 µM.
As to `COc1ccc(C(=O)/C=C/c2ccc(OCC=C(C)C)c(OC)c2)cc1` [LLA1 (1a), (E)-3-(3-methoxy-4-((3-methylbut-2-en-1-yl)oxy)phenyl)-1-(4-methoxyphenyl)prop-2-en-1-one], the IC50 is 74.9 µM in data set [1] (setting [12]) and 67.2 µM in data set [1] (setting [13]). Also, the 50% cytotoxic concentration (CC50) at 48 h in data set [3] (peritoneal murine macrophages) is greater than 400 µM.
With `C=CC(C)(C)c1cc(/C=C/C(=O)c2ccc(O)cc2)c(OC)cc1O` [LicoA (1), Licochalcone A], the “toxicity in HFF cell in vitro” value in the data set with HFF cell is “low-toxicity”. Further, the hemolytic activity result in data set [4] is given as “about 30%”. Also, the IC50 in data set [1] (setting [12]) is 20.3 µM; in [1] (setting [13]) it was 3.88 µM; in data set [5] (Leishmania infantum, 24 h, read-out: IC50 L (L.) infantum Promastigote 24 h) it was 41.1 µM; in data set [5] (Leishmania infantum, 48 h, read-out: IC50 L (L.) infantum Promastigote 48 h) it was 12.5 µM; in data set [6], 36.8 µM; in [7] (Leishmania infantum, Macrophage) it was 29.6 µM. Moreover, the CC50 in data set [2] (setting [14]) was 123 µM. In addition, in data set [3] (read-out: CC50 Peritoneal murine macrophages 48 h), the CC50 at 48 h amounted to 123 µM. The “reduction of parasite burden in liver” value with L. (L.) infantum (setting [15]) came out at 15.27%; in the data set on L. (L.) infantum (setting [16]), 43.67%. Also, the “reduction of parasite burden in spleen” value in the data set on L. (L.) infantum (setting [15]) stood at 20.69%; in the data set with L. (L.) infantum (setting [16]), 39.81%. The survival rate in the data set on L. (L.) infantum came to 100%. Also, the average body weight entry with L. (L.) infantum is “no significant variation”. In addition, the lesion development entry in the data set on L. (L.) major is given as “completely prevented lesion development”. Further, the “effect on number of amastigotes” value with amastigotes was “reduction in the number of amastigotes”. Moreover, the “concentration inducing hemolysis (cell shrinkage and phospholipid scrambling of the cell membrane)” value in the data set on erythrocytes is “higher than 30 μM”. Further, the hepatotoxicity result in data set [8] (LicoA-treated vs non-treated groups, serum aminotransaminases) is listed as “No evidence of hepatotoxicity”. Further, the “serum levels of aminotransaminases (ALT, AST)” value in data set [8] (20 mg/kg of body weight per day intraperitoneally) and in data set [8] (setting [17]) was “no significant alterations” each time. For the same compound, the “effect against Acetaminophen overdose-induced hepatotoxicity” value in [9] is “protective effect”. Besides, in the data set with L. (L.) donovani, the “reduction of parasite load in the liver and the spleen” value is on record as greater than 96%. Besides, in data set [10] (100 mg/kg in rats and 150 mg/kg in hamsters, intraperitoneal), the “toxicity, intraperitoneal” value was “did not show any toxicity”. Moreover, the “signs of toxicity, oral” value in data set [10] (doses higher than 1,000 mg/kg, orally once a day for 2 weeks) was “did not cause any signs of toxicity”.
As to `C[C@@H]1[C@H](O)[C@@H](C)/C=C/C=C/C=C/C=C/C=C/C=C/C=C/[C@H](O[C@@H]2O[C@H](C)[C@@H](O)[C@H](N)[C@@H]2O)C[C@@H]2O[C@](O)(C[C@@H](O)C[C@@H](O)[C@H](O)CC[C@@H](O)C[C@@H](O)CC(=O)O[C@H]1C)C[C@H](O)[C@H]2C(=O)O` [AmpB, amphotericin B, reference compound], in data set [11], the hemolysis at 30 min, 100 µM came out at 60%. The hemolysis at 30 min, 200 µM in data set [11] amounted to 100%. Further, the IC50 was 0.27 µM in data set [1] (setting [12]), 0.065 µM in data set [1] (setting [13]) and 0.022 µM in [6].
In the case of “meglumine antimoniate [MA, reference compound]”, the IC50 in data set [5] (24 h, value (95% CI), read-out: IC50 L (L.) infantum Promastigote 24 h) is greater than 400 µM; in data set [5] (48 h, value (95% CI), read-out: IC50 L (L.) infantum Promastigote 48 h), greater than 400 µM; in data set [7] (in peritoneal murine macrophages, value (95% CI)), greater than 400 µM. Also, the “cytotoxicity at concentrations evaluated” value in data set [2] (12.5–400 μM, 48 h) is given as “no cytotoxicity”. In addition, in data set [2] (setting [14]), the CC50 was greater than 400 µM. For the same compound, in the data set with L. (L.) infantum (setting [16]), the “reduction of parasite burden in liver” value was 55.87%. Further, the “reduction of parasite burden in spleen” value in the data set with L. (L.) infantum (setting [16]) is 63.57%. The survival rate in the data set on L. (L.) infantum turned out to be 100%. Also, the average body weight entry in the data set on L. (L.) infantum was “no significant variation”. Besides, the “serum levels of aminotransaminases (ALT, AST)” value in [8] (setting [17]) is listed as “significant increase”.

(Values after article PMC7758436 (Frontiers in Veterinary Science, 2020).)
